Data taken from patent US20210300940A1 (Merck Patent GmbH, priority 2018, published 2021).
Counter-ions that a name gives are not always drawn.

Key:
TLR7 = biological target: T1, TLR7 (Homo sapiens, UniProt Q9NYK1); experiment: HEK/293 TLR7 Cell Assay; type: cell-based; details: TLR7/NFKb HEK cells, R848 agonist 10 uM final concentration, Steady-Glo readout; read-out: TLR7 potency
T1 construct: expressed in transfected cells; host or cells: HEK/293 cells carrying TLR7 and an NF-kB luciferase reporter
T1 sequence (Q9NYK1 27-1049): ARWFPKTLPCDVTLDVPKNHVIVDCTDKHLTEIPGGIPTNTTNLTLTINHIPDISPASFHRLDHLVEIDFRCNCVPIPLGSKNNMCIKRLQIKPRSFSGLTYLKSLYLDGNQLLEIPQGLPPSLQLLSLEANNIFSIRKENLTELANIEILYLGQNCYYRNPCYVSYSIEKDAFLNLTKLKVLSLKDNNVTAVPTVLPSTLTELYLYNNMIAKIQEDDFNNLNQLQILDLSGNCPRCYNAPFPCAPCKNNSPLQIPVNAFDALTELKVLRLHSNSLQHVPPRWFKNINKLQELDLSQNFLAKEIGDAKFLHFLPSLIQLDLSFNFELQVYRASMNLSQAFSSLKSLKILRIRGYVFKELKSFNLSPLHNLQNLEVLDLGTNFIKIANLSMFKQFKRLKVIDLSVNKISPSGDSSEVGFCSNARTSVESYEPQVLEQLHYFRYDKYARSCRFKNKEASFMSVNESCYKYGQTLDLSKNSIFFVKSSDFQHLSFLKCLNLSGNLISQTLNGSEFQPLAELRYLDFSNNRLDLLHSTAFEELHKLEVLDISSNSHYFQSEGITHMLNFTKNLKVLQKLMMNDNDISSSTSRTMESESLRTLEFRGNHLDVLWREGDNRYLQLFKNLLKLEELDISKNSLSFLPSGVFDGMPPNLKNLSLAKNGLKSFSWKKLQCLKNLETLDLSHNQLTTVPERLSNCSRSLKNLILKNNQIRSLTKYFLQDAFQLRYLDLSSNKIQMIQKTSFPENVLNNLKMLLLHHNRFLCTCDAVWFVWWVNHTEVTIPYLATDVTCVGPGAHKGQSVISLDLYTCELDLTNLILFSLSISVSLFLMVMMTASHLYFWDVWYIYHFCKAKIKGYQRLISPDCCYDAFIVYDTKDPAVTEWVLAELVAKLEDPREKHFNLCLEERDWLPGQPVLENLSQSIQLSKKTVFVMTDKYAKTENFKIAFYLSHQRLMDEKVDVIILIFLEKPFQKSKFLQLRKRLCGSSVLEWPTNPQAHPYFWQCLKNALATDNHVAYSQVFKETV
In short: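 TLR7/NF-κB reporter HEK293 cells, 5000/well, cultured 24 h, then preincubated 30 min with compound before R848 agonist (10 uM final). After 5 h stimulation, Steady-Glo luciferase luminescence read.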

TLR8 = biological target: T2, TLR8 (Homo sapiens, UniProt Q9NR97); experiment: HEK/293 TLR8 Cell Assay; type: cell-based; details: HEK cells, R848 agonist 30 uM final concentration, Steady-Glo readout; read-out: TLR8 potency
T2 construct: expressed in transfected cells; host or cells: HEK/293 reporter cells (NF-kB luciferase)
T2 sequence (Q9NR97 27-1041): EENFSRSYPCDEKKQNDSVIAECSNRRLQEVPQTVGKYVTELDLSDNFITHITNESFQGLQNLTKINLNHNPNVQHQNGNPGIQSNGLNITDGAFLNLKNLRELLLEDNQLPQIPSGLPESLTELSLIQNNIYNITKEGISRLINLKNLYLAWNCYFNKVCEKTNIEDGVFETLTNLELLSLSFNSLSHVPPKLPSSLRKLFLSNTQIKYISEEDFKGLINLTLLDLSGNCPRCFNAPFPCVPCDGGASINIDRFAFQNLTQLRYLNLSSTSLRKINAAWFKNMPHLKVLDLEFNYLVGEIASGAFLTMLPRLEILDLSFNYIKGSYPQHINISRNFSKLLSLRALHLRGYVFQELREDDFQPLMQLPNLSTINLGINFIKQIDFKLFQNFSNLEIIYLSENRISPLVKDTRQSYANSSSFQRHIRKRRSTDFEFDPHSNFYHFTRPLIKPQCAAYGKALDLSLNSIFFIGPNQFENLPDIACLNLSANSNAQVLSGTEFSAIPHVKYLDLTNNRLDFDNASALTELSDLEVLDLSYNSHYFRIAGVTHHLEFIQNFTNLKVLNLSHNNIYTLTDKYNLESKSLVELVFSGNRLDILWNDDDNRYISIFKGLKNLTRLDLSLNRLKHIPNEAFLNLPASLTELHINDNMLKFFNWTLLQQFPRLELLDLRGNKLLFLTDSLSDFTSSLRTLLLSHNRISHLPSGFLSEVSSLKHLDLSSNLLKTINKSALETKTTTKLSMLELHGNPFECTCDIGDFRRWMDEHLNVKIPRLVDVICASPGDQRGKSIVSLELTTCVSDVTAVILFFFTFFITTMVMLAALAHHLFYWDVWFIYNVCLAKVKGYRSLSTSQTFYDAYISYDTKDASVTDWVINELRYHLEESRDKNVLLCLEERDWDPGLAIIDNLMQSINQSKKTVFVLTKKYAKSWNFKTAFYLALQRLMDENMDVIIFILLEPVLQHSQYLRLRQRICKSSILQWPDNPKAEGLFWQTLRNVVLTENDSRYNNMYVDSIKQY

N#Cc1ccc(N2C[C@H](NCC3CCCNC3)C[C@H](C(F)(F)F)C2)c2cccnc12 (stereo partly drawn) [Example 152, 5-{(3R,5S)-3-[(Piperidin-3-ylmethyl)-amino]-5-trifluoromethyl-piperidin-1-yl}-quinoline-8-carbonitrile]
IC50 (TLR7): 0.075 to 0.15 µM | IC50 (TLR8): 0.075 to 0.15 µM

N#Cc1ncc(N2C[C@@H](C(=O)NCC3(F)CCNCC3)O[C@@H](C(F)(F)F)C2)c2cccnc12 (single isomer, unassigned) [Example 318]
IC50 (TLR7): > 0.15 µM | IC50 (TLR8): > 0.15 µM

CC(=O)N1CCC(NC[C@H]2CN(c3cnc(C#N)c4ncccc34)C[C@@H](C)O2)CC1 [Example 381, 5-{(2S,6R)-2-[(1-Acetyl-piperidin-4-ylamino)-methyl]-6-methyl-morpholin-4-yl}-[1,7]naphthyridine-8-carbonitrile]
IC50 (TLR7): > 0.15 µM | IC50 (TLR8): > 0.15 µM

N#Cc1ccc(N2C[C@@H](C(F)(F)F)O[C@@H](C(=O)N[C@H]3CNC[C@H]3F)C2)c2nccnc12 (single isomer, unassigned) [Example 303]
IC50 (TLR7): < 0.075 µM | IC50 (TLR8): < 0.075 µM

C[C@@H]1CN(c2ccc(C#N)c3nccnc23)C[C@H](CSC2CN(CC(C)(C)O)C2)O1 [Example 226, 8-{(2R,6R)-2-[1-(2-Hydroxy-2-methyl-propyl)-azetidin-3-ylsulfanylmethyl]-6-methyl-morpholin-4-yl}-quinoxaline-5-carbonitrile]
IC50 (TLR7): < 0.075 µM | IC50 (TLR8): < 0.075 µM

C[C@H]1C[C@@H](NCCNS(C)(=O)=O)CN(c2ccc(C(F)(F)F)c3nccnc23)C1 [Example 23, N-{2-[(3R,5S)-5-Methyl-1-(8-trifluoromethyl-quinoxalin-5-yl)-piperidin-3-ylamino]-ethyl}-methanesulfonamide]
IC50 (TLR7): < 0.075 µM | IC50 (TLR8): < 0.075 µM

CCS(=O)(=O)NCCN[C@@H]1C[C@H](C)CN(c2ccc(C(F)(F)F)c3nccnc23)C1 [Example 24]
IC50 (TLR7): 0.075 to 0.15 µM | IC50 (TLR8): < 0.075 µM

Cc1ccc(N2C[C@@H](C)C[C@@H](NC(=O)C(N)C3CC3)C2)c2cccnc12 (stereo partly drawn) [Example 133, 2-Amino-2-cyclopropyl-N-[(3R,5S)-5-methyl-1-(8-methyl-quinolin-5-yl)-piperidin-3-yl]-acetamide]
IC50 (TLR7): < 0.075 µM | IC50 (TLR8): < 0.075 µM

Cc1ccc(N2C[C@H](NC(=O)CC3CCN(C(C)C)CC3)CC(F)(F)C2)c2cccnc12 [Example 110, N—[(R)-5,5-Difluoro-1-(8-methyl-quinolin-5-yl)-piperidin-3-yl]-2-(1-isopropyl-piperidin-4-yl)-acetamide]
IC50 (TLR7): < 0.075 µM | IC50 (TLR8): > 0.15 µM

N#Cc1ccc(N2C[C@H](NC(=O)CC3(F)CCNCC3)C[C@H](C(F)(F)F)C2)c2nccnc12 [Example 118, N-[(3R,5S)-1-(8-cyanoquinoxalin-5-yl)-5-(trifluoromethyl)piperidin-3-yl]-2-(4-fluoropiperidin-4-yl)acetamide]
IC50 (TLR7): < 0.075 µM | IC50 (TLR8): < 0.075 µM

Cc1ccc(N2C[C@@H](C)C[C@@H](NC(=O)CC3(O)CCN(C)CC3)C2)c2cccnc12 [Example 85, 2-(4-hydroxy-1-methylpiperidin-4-yl)-N-[(3R,5S)-5-methyl-1-(8-methylquinolin-5-yl)piperidin-3-yl]acetamide hydrochloride]
IC50 (TLR7): < 0.075 µM | IC50 (TLR8): < 0.075 µM

N#Cc1ccc(N2C[C@H](NC(=O)[C@@H]3CCCN3)C[C@H](C(F)(F)F)C2)c2cccnc12 [Example 125, (2S)—N-[(3R,5S)-1-(8-cyanoquinolin-5-yl)-5-(trifluoromethyl)piperidin-3-yl]pyrrolidine-2-carboxamide]
IC50 (TLR7): < 0.075 µM | IC50 (TLR8): < 0.075 µM

CN(C)CCC(=O)N[C@@H]1C[C@H](C(F)(F)F)CN(c2ccc(C#N)c3ncccc23)C1 [Example 65, N-[(3R,5S)-1-(8-cyanoquinolin-5-yl)-5-(trifluoromethyl)piperidin-3-yl]-3-(dimethylamino)propanamide]
IC50 (TLR7): < 0.075 µM | IC50 (TLR8): < 0.075 µM

C[C@H]1C[C@@H](NCCCS(N)(=O)=O)CN(c2ccc(C#N)c3nccnc23)C1 [Example 34, 3-[(3R,5S)-1-(8-Cyano-quinoxalin-5-yl)-5-methyl-piperidin-3-ylamino]-propane-1-sulfonic acid amide]
IC50 (TLR7): < 0.075 µM | IC50 (TLR8): < 0.075 µM

C[C@@H]1CN(c2ccc(C#N)c3nccnc23)C[C@H](CN2CCC(F)(F)C2)O1 [Example 215, 8-[(2S,6R)-2-(3,3-Difluoro-pyrrolidin-1-ylmethyl)-6-methyl-morpholin-4-yl]-quinoxaline-5-carbonitrile]
IC50 (TLR7): 0.075 to 0.15 µM | IC50 (TLR8): > 0.15 µM

C[C@@H]1CN(c2cnc(C#N)c3ncccc23)C[C@H](CN2CCC(N3CCOCC3)CC2)O1 [Example 367, 5-[(2R,6S)-2-Methyl-6-(4-morpholin-4-yl-piperidin-1-ylmethyl)-morpholin-4-yl]-[1,7]naphthyridine-8-carbonitrile]
IC50 (TLR7): 0.075 to 0.15 µM | IC50 (TLR8): < 0.075 µM

C[C@H]1C[C@@H](NCC2CCS(=O)(=O)C2)CN(c2ccc(C#N)c3nccnc23)C1 (stereo partly drawn) [Example 42, 8-{(3R,5S)-3-[(1,1-Dioxo-tetrahydro-1lambda6-thiophen-3-ylmethyl)-amino]-5-methyl-piperidin-1-yl}-quinoxaline-5-carbonitrile]
IC50 (TLR7): 0.075 to 0.15 µM | IC50 (TLR8): 0.075 to 0.15 µM

N#Cc1ccc(N2C[C@H](N)CC(F)(F)C2)c2cccnc12 (single isomer, unassigned) [Example 198]
IC50 (TLR7): > 0.15 µM | IC50 (TLR8): > 0.15 µM

C[C@H]1C[C@@H](NC(=O)CN2CCN(C)CC2)CN(c2cnc(C#N)c3nccnc23)C1 [Example 188, N-[(3R,5S)-1-(5-Cyano-pyrido[3,4-b]pyrazin-8-yl)-5-methyl-piperidin-3-yl]-2-(4-methyl-piperazin-1-yl)-acetamide]
IC50 (TLR7): < 0.075 µM | IC50 (TLR8): < 0.075 µM

N#Cc1ccc(N2C[C@H](NC(=O)C3CCCCN3)C[C@H](C(F)(F)F)C2)c2cccnc12 (stereo partly drawn) [Example 183, Piperidine-2-carboxylic acid [(3R,5S)-1-(8-cyano-quinolin-5-yl)-5-trifluoromethyl-piperidin-3-yl]-amide]
IC50 (TLR7): 0.075 to 0.15 µM | IC50 (TLR8): 0.075 to 0.15 µM

C[C@H]1C[C@@H](OCCN2CCN(C)CC2)CN(c2ccc(C#N)c3nccnc23)C1 (racemic) [Example 1, 8-[(3S,5R)-3-methyl-5-[2-(4-methylpiperazin-1-yl)ethoxy]piperidin-1-yl]quinoxaline-5-carbonitrile]
IC50 (TLR7): < 0.075 µM | IC50 (TLR8): < 0.075 µM

C[C@@H]1CN(c2cnc(C#N)c3ncccc23)C[C@H](CN2CCC(N)C(F)(F)C2)O1 (stereo partly drawn) [Example 369, 5-[(2S,6R)-2-(4-Amino-3,3-difluoro-piperidin-1-ylmethyl)-6-methyl-morpholin-4-yl]-[1,7]naphthyridine-8-carbonitrile]
IC50 (TLR7): < 0.075 µM | IC50 (TLR8): < 0.075 µM
